Reference: patent publication US9346761B2, “Arginine methyltransferase inhibitors and uses thereof” (Epizyme, Inc., priority 2013, dated 2016)

What was measured:
[1] = target: T1, Full-length human PRMT6 (Homo sapiens, UniProt Q96LA8); experiment: PRMT6 biochemical assay (3H-SAM Flashplate, peptide substrate)
T1 construct: Flag-PRMT6-His was eluted with 200 ug/ml FLAG peptide in the same buffer; made in house; host or cells: HEK 293F cells (BacMam virus, pFastBacMam)
In short: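 Read-out is 3H-methylated histone H4 (36-50) peptide bound to streptavidin Flashplates after a cold-SAM stop. Baculovirus-expressed Flag-PRMT6-His met compound for 30 min at room temperature before SAM and peptide; Bicine pH 7.6 buffer. IC50 fitted to % inhibition normalized to SAH (min) and DMSO (max).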

[2] = target: T2, Human CARM1 (PRMT4) (Homo sapiens, UniProt Q86X55); experiment: CARM1 biochemical assay (3H-SAM Flashplate, peptide substrate)
T2 construct: Flag-CARM1-His was eluted with 200 ug/ml FLAG peptide in buffer A; made in house; host or cells: HEK 293F cells (BacMam virus, pFastBacMam)
T2 sequence (Q86X55 with tags, fused parts or gaps isoform Q86X55-1): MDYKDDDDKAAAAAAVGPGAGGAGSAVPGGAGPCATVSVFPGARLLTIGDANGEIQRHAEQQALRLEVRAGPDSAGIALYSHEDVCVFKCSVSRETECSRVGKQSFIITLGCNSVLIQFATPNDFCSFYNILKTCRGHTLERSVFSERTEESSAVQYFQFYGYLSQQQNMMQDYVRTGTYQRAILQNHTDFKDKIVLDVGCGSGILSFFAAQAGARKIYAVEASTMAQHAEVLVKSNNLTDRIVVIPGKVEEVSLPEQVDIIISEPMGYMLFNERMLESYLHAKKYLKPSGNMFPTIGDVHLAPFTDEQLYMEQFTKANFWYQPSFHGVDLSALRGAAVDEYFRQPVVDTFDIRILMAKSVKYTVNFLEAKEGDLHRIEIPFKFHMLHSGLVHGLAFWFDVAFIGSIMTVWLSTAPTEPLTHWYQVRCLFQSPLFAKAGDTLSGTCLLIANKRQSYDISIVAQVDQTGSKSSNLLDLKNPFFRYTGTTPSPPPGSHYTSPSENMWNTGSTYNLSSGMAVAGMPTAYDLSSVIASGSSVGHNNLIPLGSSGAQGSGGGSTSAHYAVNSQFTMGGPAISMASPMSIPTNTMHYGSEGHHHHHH
In short: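 Methylation of a biotin-tagged H3 residues 16-30 peptide by recombinant CARM1 tracked via 3H-SAM incorporation, read as scintillation counts after streptavidin Flashplate capture. Compound and enzyme sat 30 min at room temperature first; unlabelled SAM at 300 uM final stopped the reaction. IC50 from Hill fits of % inhibition normalised to SAH and DMSO controls.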

T1 sequence (Q96LA8 with tags, fused parts or gaps): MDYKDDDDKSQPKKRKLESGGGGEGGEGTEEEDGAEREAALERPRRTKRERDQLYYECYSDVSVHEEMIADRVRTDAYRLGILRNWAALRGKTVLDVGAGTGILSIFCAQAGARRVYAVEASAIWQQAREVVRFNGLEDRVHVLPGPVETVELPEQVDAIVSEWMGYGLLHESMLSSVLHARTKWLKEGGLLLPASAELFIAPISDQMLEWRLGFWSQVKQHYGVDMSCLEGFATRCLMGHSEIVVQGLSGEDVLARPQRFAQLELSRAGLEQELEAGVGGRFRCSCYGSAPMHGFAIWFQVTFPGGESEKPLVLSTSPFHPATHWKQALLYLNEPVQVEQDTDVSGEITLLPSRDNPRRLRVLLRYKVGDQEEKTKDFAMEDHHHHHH

**Q.** How did the IC50 [1] turn out when `CN(CCN)Cc1nn(C)cc1-c1ccc(C#N)cc1` [Compound 83] was run?
**A.** The IC50 was < 0.1 µM.

**Q.** And the IC50 [2]?
**A.** Its IC50 is 1.01 to 3 µM.

**Q.** For `CN(CCN)Cc1c[nH]nc1-c1ccc(C(F)(F)F)cc1C(F)(F)F` [Compound 85], which IC50 [1] is on record?
**A.** Its IC50 is 0.101 to 1 µM.

**Q.** What about the IC50 [2] of the same molecule?
**A.** The IC50 was > 10 µM.

**Q.** Which results are given for `CN(CCN)Cc1c[nH]nc1-c1ccc(Cl)cc1Cl` [Compound 86]?
**A.** IC50 [1]: < 0.1 µM; IC50 [2]: 3.01 to 10 µM

**Q.** For `COc1ccc(-c2n[nH]cc2CN(C)CCN)c(OC)c1` [Compound 87], which IC50 [1] is on record?
**A.** The IC50 was 0.101 to 1 µM.

**Q.** And the IC50 [2]?
**A.** The IC50 was 3.01 to 10 µM.

**Q.** Which results are given for `Cc1ccc(-c2n[nH]cc2CN(C)CCN)c(C)c1` [Compound 88]?
**A.** IC50 [1]: < 0.1 µM; IC50 [2]: 3.01 to 10 µM

**Q.** Which results are given for `CN(CCN)Cc1c[nH]nc1-c1ccc(F)cc1Cl` [Compound 89]?
**A.** IC50 [1]: < 0.1 µM; IC50 [2]: 3.01 to 10 µM

**Q.** Which IC50 [1] does the source give for `Cc1ccc(-c2n[nH]cc2CN(C)CCN)c(Cl)c1` [Compound 90] here?
**A.** The IC50 was < 0.1 µM.

**Q.** And the IC50 [2]?
**A.** Its IC50 is 3.01 to 10 µM.

**Q.** `Cc1ccc(Cl)c(-c2n[nH]cc2CN(C)CCN)c1` [Compound 91] was tested. Which IC50 [1] did it give?
**A.** The IC50 was 0.101 to 1 µM.

**Q.** What about the IC50 [2] of the same molecule?
**A.** The IC50 was > 10 µM.

**Q.** `CN(CCN)Cc1c[nH]nc1-c1ccc(C(F)(F)F)cc1` [Compound 92] was tested. Which IC50 [1] did it give?
**A.** The IC50 was < 0.1 µM.

**Q.** And the IC50 [2]?
**A.** The IC50 was 0.101 to 1 µM.

**Q.** `CN(CCN)Cc1c[nH]nc1-c1ccc(OC(F)(F)F)cc1` [Compound 93] was tested. Which IC50 [1] did it give?
**A.** The IC50 was < 0.1 µM.

**Q.** And the IC50 [2]?
**A.** The IC50 was 1.01 to 3 µM.

**Q.** `CN(CCN)Cc1c[nH]nc1-c1ccc(OC(F)F)cc1` [Compound 94] was tested. Which IC50 [1] did it give?
**A.** Its IC50 is < 0.1 µM.

**Q.** And the IC50 [2]?
**A.** Its IC50 is 0.101 to 1 µM.
